From US12435059B2, “AMP-activated protein kinase inhibitors and methods of making and using the same” (The Regents of the University of Colorado, priority 2019, dated 2025)

Key:
Assay in all cases: biochemical
Format in all cases: binding
468 kinases [1] = target: 468 kinases (Homo sapiens, UniProt O00329); conditions: PIK3CD; read-out: % Inhibition @ 100 nM
468 kinases [2] = target: 468 kinases (Homo sapiens, UniProt O00750); conditions: PIK3C2B; read-out: % Inhibition @ 100 nM
468 kinases [3] = target: 468 kinases (Homo sapiens, UniProt O15264); conditions: p38-delta; read-out: % Inhibition @ 100 nM
468 kinases [4] = target: 468 kinases (Homo sapiens, UniProt O60285); conditions: ARK5; read-out: % Inhibition @ 100 nM
468 kinases [5] = target: 468 kinases (Homo sapiens, UniProt P08581, M1250T); conditions: MET(M1250T); read-out: % Inhibition @ 100 nM
468 kinases [6] = target: 468 kinases (Homo sapiens, UniProt P10721); conditions: KIT; read-out: % Inhibition @ 100 nM
468 kinases [7] = target: 468 kinases (Homo sapiens, UniProt P29376); conditions: LTK; read-out: % Inhibition @ 100 nM
468 kinases [8] = target: 468 kinases (Homo sapiens, UniProt P36888, D835H); conditions: FLT3(D835H); read-out: % Inhibition @ 100 nM
468 kinases [9] = target: 468 kinases (Homo sapiens, UniProt P42336, Q546K); conditions: PIK3CA(Q546K); read-out: % Inhibition @ 100 nM
468 kinases [10] = target: 468 kinases (Homo sapiens, UniProt P49761); conditions: CLK3; read-out: % Inhibition @ 100 nM
468 kinases [11] = target: 468 kinases (Homo sapiens, UniProt P51617); conditions: IRAK1; read-out: % Inhibition @ 100 nM
468 kinases [12] = target: 468 kinases (Homo sapiens, UniProt P54760); conditions: EPHB4; read-out: % Inhibition @ 100 nM
468 kinases [13] = target: 468 kinases (Homo sapiens, UniProt P57059); conditions: SIK; read-out: % Inhibition @ 100 nM
468 kinases [14] = target: 468 kinases (Homo sapiens, UniProt Q04759); conditions: PRKCQ; read-out: % Inhibition @ 100 nM
468 kinases [15] = target: 468 kinases (Homo sapiens, UniProt Q12851); conditions: MAP4K2; read-out: % Inhibition @ 100 nM
468 kinases [16] = target: 468 kinases (Homo sapiens, UniProt Q16539); conditions: p38-alpha; read-out: % Inhibition @ 100 nM
468 kinases [17] = target: 468 kinases (Homo sapiens, UniProt Q16566); conditions: CAMK4; read-out: % Inhibition @ 100 nM
468 kinases [18] = target: 468 kinases (Homo sapiens, UniProt Q6ZN16); conditions: MAP3K15; read-out: % Inhibition @ 100 nM
468 kinases [19] = target: 468 kinases (Homo sapiens, UniProt Q7KZI7); conditions: MARK2; read-out: % Inhibition @ 100 nM
468 kinases [20] = target: 468 kinases (Homo sapiens, UniProt Q86UE8); conditions: TLK2; read-out: % Inhibition @ 100 nM
468 kinases [21] = target: 468 kinases (Homo sapiens, UniProt Q86Z02); conditions: HIPK1; read-out: % Inhibition @ 100 nM
468 kinases [22] = target: 468 kinases (Homo sapiens, UniProt Q8NEB9); conditions: VPS34; read-out: % Inhibition @ 100 nM
468 kinases [23] = target: 468 kinases (Homo sapiens, UniProt Q8TDR2); conditions: STK35; read-out: % Inhibition @ 100 nM
468 kinases [24] = target: 468 kinases (Homo sapiens, UniProt Q92630); conditions: DYRK2; read-out: % Inhibition @ 100 nM
468 kinases [25] = target: 468 kinases (Homo sapiens, UniProt Q96D53); conditions: ADCK4; read-out: % Inhibition @ 100 nM
468 kinases [26] = target: 468 kinases (Homo sapiens, UniProt Q96PY6); conditions: NEK1; read-out: % Inhibition @ 100 nM
468 kinases [27] = target: 468 kinases (Homo sapiens, UniProt Q96Q40); conditions: PFTAIRE2; read-out: % Inhibition @ 100 nM
468 kinases [28] = target: 468 kinases (Homo sapiens, UniProt Q96SB4); conditions: SRPK1; read-out: % Inhibition @ 100 nM
468 kinases [29] = target: 468 kinases (Homo sapiens, UniProt Q99640); conditions: PKMYT1; read-out: % Inhibition @ 100 nM
468 kinases [30] = target: 468 kinases (Homo sapiens, UniProt Q9BYT3); conditions: STK33; read-out: % Inhibition @ 100 nM
468 kinases [31] = target: 468 kinases (Homo sapiens, UniProt Q9NWZ3); conditions: TRAK4; read-out: % Inhibition @ 100 nM
468 kinases [32] = target: 468 kinases (Homo sapiens, UniProt Q9P289); conditions: MST4; read-out: % Inhibition @ 100 nM
468 kinases [33] = target: 468 kinases (Homo sapiens, UniProt Q9Y2H9); conditions: MAST1; read-out: % Inhibition @ 100 nM

Structure (SMILES)	inhibition at 0.1 µM (468 kinases [1])	inhibition at 0.1 µM (468 kinases [2])	inhibition at 0.1 µM (468 kinases [3])	inhibition at 0.1 µM (468 kinases [4])	inhibition at 0.1 µM (468 kinases [5])	inhibition at 0.1 µM (468 kinases [6])	inhibition at 0.1 µM (468 kinases [7])	inhibition at 0.1 µM (468 kinases [8])	inhibition at 0.1 µM (468 kinases [9])	inhibition at 0.1 µM (468 kinases [10])	inhibition at 0.1 µM (468 kinases [11])	inhibition at 0.1 µM (468 kinases [12])	inhibition at 0.1 µM (468 kinases [13])	inhibition at 0.1 µM (468 kinases [14])	inhibition at 0.1 µM (468 kinases [15])	inhibition at 0.1 µM (468 kinases [16])	inhibition at 0.1 µM (468 kinases [17])	inhibition at 0.1 µM (468 kinases [18])	inhibition at 0.1 µM (468 kinases [19])	inhibition at 0.1 µM (468 kinases [20])	also measured
CCN(CC)CCNC(=O)c1c(C)[nH]c(/C=C2\C(=O)Nc3ccc(CCO)cc32)c1C [Compound No. 10, (Z)—N-(2-(Diethylamino)ethyl)-5-((5-(2-hydroxyethyl)-2-oxoindolin-3-ylidene)methyl)-2,4-dimethyl-1H-pyrrole-3-carboxamide]	0%	0%	0%	84%	0%	80%	8%	91.7%	0%	5%	99.3%	3%	0%	0%	88%	0%	0%	0%	6%	0%	inhibition at 0.1 µM (468 kinases [21]): 56%; inhibition at 0.1 µM (468 kinases [22]): 25%; inhibition at 0.1 µM (468 kinases [23]): 21%; inhibition at 0.1 µM (468 kinases [24]): 18%; inhibition at 0.1 µM (468 kinases [25]): 0%; inhibition at 0.1 µM (468 kinases [26]): 9%; inhibition at 0.1 µM (468 kinases [27]): 0%; inhibition at 0.1 µM (468 kinases [28]): 60%; inhibition at 0.1 µM (468 kinases [29]): 19%; inhibition at 0.1 µM (468 kinases [30]): 70%; inhibition at 0.1 µM (468 kinases [31]): 68%; inhibition at 0.1 µM (468 kinases [32]): 0%; inhibition at 0.1 µM (468 kinases [33]): 40%
CCN(CC)CCNC(=O)c1c(C)[nH]c(/C=C2\C(=O)Nc3ccc(CCC(N)=O)cc32)c1C [Compound No. 16, (Z)-5-((5-(3-Amino-3-oxopropyl)-2-oxoindolin-3-ylidene)methyl)-N-(2-(diethylamino)ethyl)-2,4-dimethyl-1H-pyrrole-3-carboxamide]	24%	24%	0%	71%	6%	8%	0%	92.9%	3%	10%	96.9%	0%	9%	0%	89%	0%	0%	71%	40%	23%	inhibition at 0.1 µM (468 kinases [21]): 92.6%; inhibition at 0.1 µM (468 kinases [22]): 46%; inhibition at 0.1 µM (468 kinases [23]): 15%; inhibition at 0.1 µM (468 kinases [24]): 34%; inhibition at 0.1 µM (468 kinases [25]): 0%; inhibition at 0.1 µM (468 kinases [26]): 77%; inhibition at 0.1 µM (468 kinases [27]): 0%; inhibition at 0.1 µM (468 kinases [28]): 78%; inhibition at 0.1 µM (468 kinases [29]): 18%; inhibition at 0.1 µM (468 kinases [30]): 78%; inhibition at 0.1 µM (468 kinases [31]): 68%; inhibition at 0.1 µM (468 kinases [32]): 37%; inhibition at 0.1 µM (468 kinases [33]): 30%
